Assay results: patent publication US20160115225A1, “Methods of Reducing Methylglyoxal (MGO) Modification of Recombinant Proteins in Cell Culture” (AbbVie Inc., priority 2014, published 2016)

Legend:
[1] = system: adalimumab producing cell line 1; assay: Glucose consumption of the culture, cell line 1; type: cell-based; details: Example 3; arginine supplementation 4 g/l
Description: For the bioreactor (3 L Applikon) experiments (Examples 1, 2 and 3), 3 L, bioreactors (1.5 L working volume) were initiated at 35° C. (cell line 1) and 36° C. (cell line 2), 30% DO, 200 rpm, pH of 7.1. In some of the conditions, pH was ramped down to 6.8 in three days and kept at pH 6.8 thereafter. The inclusion of pH ramp for a particular condition is indicated by the final pH in the experimental design. If the final pH is 7.1, then it indicates no pH ramp was performed, whereas if the final pH is 6.8, a pH ramp was performed on day 3 from pH 7.1 to pH 6.8. In some of the conditions, a temperature shift was performed. When temperature shift was performed, the temperature was lowered to 33° C. Again, the conditions where such a temperature shift was performed can be identified from the final temperature in the experimental design. Cultures were run in extended batch mode with the addition of a desired amount of 40% glucose stock solution was fed based on glucose measurements.
To assess if this reduction in MGO modification in the test conditions also corresponded to lower glucose consumption, the specific glucose consumption rate was calculated across the two phases of culture: average over day 0-day 5 and average over day 5-10 (period post temperature shift) (FIG. 4b). The specific glucose consumption rate in the conditions with 2DDG supplementation was lower in both phases. […] In the period post the temperature shift, up to 50% reduction in specific glucose consumption rate relative to that in the control was observed. Thus, a clear correlation has been observed between reduced glucose consumption and the extent of MGO modification of the peptides.
To further assess the applicability of this strategy, the cumulative glucose consumption levels were also evaluated for these conditions in this study (FIG. 6b). This was calculated by using daily glucose concentration measurements via the offline analyzer and by accounting for glucose feeds when added. […]

[2] = system: adalimumab producing cell line 2; assay: Lys-C peptide mapping for MGO modification of adalimumab, shake flask culture, cell line 2; type: cell-based; details: Example 5; day 11 harvest; control 1.93%
Description: For shake flask experiments (Example 4), duplicate 500 mL Corning vented non-baffled shake flasks (200 mL working volume) were used for each condition. Similar to the seed train stage, the production stage shake flasks were kept in incubators maintained at 36° C. and 5% CO2 on shaker platforms that were set at 140 rpm.
Typical trypsin digestion for peptide mapping cleaves a denatured, reduced and alkylated protein at the carboxyl side of the two basic amino acids, lysine and arginine. Methylglyoxal (MGO) is a small molecule metabolite derived as a glycolysis byproduct which can modify arginine residues. […] The challenge of quantifying the amount of MGO modified peptide is that, it is not compared to an equivalent non-modified peptide but rather to two parental cleaved peptides. […] In order to determine a truly accurate direct measurement of an MGO-modified peptide, it is compared to its non-modified counterpart and expressed as a percentage. […] The result is a direct comparison of the same peptide with and without an MGO modification, which provides a high degree of accuracy in quantifying even trace levels of the modified species.
Procedure: Samples were dilated to a nominal concentration of 4 mg/mL. […] Samples were analyzed by LC/MS peptide mapping. […] Eluting peaks were monitored using a Thermo Scientific LTQ-Orbitrap Mass Spectrometer. […]

Row | SMILES | glucose consumption [1] | MGO modification (total) [2] [%]
1 | N=C(N)NCCC[C@H](N)C(=O)O [arginine, Arginine] | no additional reduction | –
2 | N[C@@H](CO)C(=O)O [Test 1, Serine] | – | 0.68
